# Tested on: relapsed or refractory DLBCL
# Experiment: Compound A treatment of relapsed or refractory DLBCL patients stratified by 26-gene (Table 2) classifier: PFS and tumor measurement
# Assay type: in vivo, human
# Conditions: for PFS: Compound A treatment (FIG. 3)
# Source text: In another exemplary study, a computational decision function was applied to gene expression values for the 26 genes in Table 2 to predict the positive/negative outcome sub-group membership of relapsed or refractory DLBCL patients for responsiveness to Compound A treatment alone or in combination with other agents.
# The response to Compound A treatment of each of a group of relapsed or refractory DLBCL patients was predicated based on the gene expression levels of 26 genes of Table 2, and the group of patients were classified into two populations—the population predicted to be responsive to Compound A treatment (26 genes positive population) and the other population predicted to be not responsive to Compound A (26 genes negative population).
# The expression levels of the 26 genes were measured as follows: DLBCL lymph-node biopsies were formalin fixed and paraffin embedded. Nucleic acids obtained from the tissues were extracted using the Roche High Pure FPPET kit, according to the manufacturer's instructions. The RNA was quantitated using spectrophotometry (NanoDrop, Thermo Science, DE). Gene expression on approximately 200 nanograms of RNA was used to determine gene expression levels by means of NanoString technology (NanoString Technologies, WA). The total RNA was hybridized to the custom codesets at 65° C. overnight. The reaction was processed on the nCounter™ Prep Station and gene expression data was then acquired on the nCounter™ Digital Analyzer.
# Then, the patients' response to Compound A treatment were measured by progression free survival (PFS). The results are shown in FIG. 3, and as shown, that there is a significant benefit, as measured by PFS, of 26 gene positive population (upper line) as compared to 26 genes negative population (lower line) (PFS 17.43 weeks in 26 genes positive population versus PFS 6.57 weeks in 26 genes negative population).
# Additionally, the response to Compound A of DLBCL patients with historically poor prognosis was measured by Nanostring. […] This is comparison to patients in the 26 genes positive population (blue line), in which 4 patients obtained a durable clinical response of greater than 50% decrease in tumor size (see FIG. 8). Similar results were observed when examining patients with primary refractory DLBCL that had also had at least 3 or more prior lines of therapy (see FIG. 9).
compound,measurement,setting,value
"Cc1nc2cccc(N)c2c(=O)n1C1CCC(=O)NC1=O (centres unmarked) [Compound A, 3-(5-amino-2-methyl-4-oxo-4H-quinazolin-3-yl)-piperidine-2,6-dione]",PFS at 6 months,26 genes negative population,5.4%
same,PFS,26 genes negative population,6.57 weeks
same,PFS at 6 months,26 genes positive population,44.6%
same,PFS,26 genes positive population,17.43 weeks
same,median PFS,ABC subtype of DLBCL (FIG. 7),12.1 weeks
same,median PFS,GCB subtype of DLBCL (FIG. 7),15.6 weeks
same,"tumor measurement, clinical response",majority of patients in the 26 genes negative population (FIG. 5),rapid progression or short responses
same,"tumor measurement, clinical response",majority of patients in the 26 genes positive population (FIG. 4),clinical response of greater than 50% decrease in tumor size and/or have stable disease
same,"tumor measurement, clinical course","primary refractory disease (less than complete response to R-CHOP), 26 genes negative population (FIG. 8)",experienced rapid progression
same,patients who obtained a durable clinical response of greater than 50% decrease in tumor size,"primary refractory disease (less than complete response to R-CHOP), 26 genes positive population (FIG. 8)",4 patients
same,median PFS,unclassified subtype of DLBCL (FIG. 7),7 weeks
